According to the RepoRT retention time repository:

Experiment: Waters ACQUITY UPLC BEH C18, 100 × 2.1 mm, 1.7 µm, 40 °C, 0.3 to 0.4 mL/min, estimated dead time 0.63 min; A: water + 0.1% formic acid; B: methanol + 0.1% formic acid; gradient (min/%B) 0/0.5 0.1/0.5 10/80 10.1/99.5 12/99.5
Details: stereoisomer not certain

Structure (SMILES)	LC retention time [min]
COc1cc(-c2oc3cc(O)cc(O)c3c(=O)c2O)ccc1O	6.14
CC1OC(OC2C(OC3C(OC4CCC5(C)C(CCC6(C)C5CC=C5C7CC(C)(C)CC(OC8OC(C)C(O)C(O)C8O)C7(C)CCC56C)C4(C)CO)OC(C(=O)O)C(O)C3O)OCC(O)C2O)C(O)C(O)C1O (centres undefined)	5.86
COCC=C1CN2C3CC45C(=Nc6c(OC)cc(OC)c(OC)c64)OCC3C1CC25 (centres undefined)	3.82
CC1CCC2(NC1)OC1CC3C4CCC5CC(OC6OC(CO)C(OC7OC(CO)C(O)C(OC8OC(O)C(O)C(O)C8O)C7OCC(O)C(O)C(O)C(O)CO)C(O)C6O)CCC5(C)C4CCC3(C)C1C2C (centres undefined)	4.32
O=C1CC(c2ccccc2)Oc2cc(O)cc(O)c21 (centres undefined)	7.47
CN(C)CCc1ccc(O)cc1	2.05
O=C(O)C1CCCN1C(=O)C1CCCN1 (centres undefined)	1.82
O=c1cc(-c2ccc(O)c(O)c2)oc2cc(O)cc(O)c12	5.34
CCCCCC=CCC=CCC=CCC=CCCCC(=O)O	7.39
CCC(C)C(NC(=O)Cc1c[nH]c2ccccc12)C(=O)O (centres undefined)	6.14
COc1cc(-c2cc(=O)c3c(O)cc(OC4OC(CO)C(O)C(O)C4O)cc3o2)cc(OC)c1O (centres undefined)	4.57
C=CC1CN2CCC1CC2C(O)c1ccnc2ccc(OC)cc12 (centres undefined)	3.31
Oc1cc(O)c2c(c1)OC(c1cc(O)c(O)c(O)c1)C(O)C2 (centres undefined)	2.49
NC(C(=O)O)c1ccccc1 (centres undefined)	2
COc1cc2c(=O)c(-c3ccc(O)cc3)coc2cc1O	5.3
O=c1cc(-c2ccc(O)c(O)c2)oc2c(C3OC(CO)C(O)C(O)C3O)c(O)c(C3OCC(O)C(O)C3O)c(O)c12 (centres undefined)	3.19
CC1OC(OC2C(O)COC(OC3C(C)OC(OC4C(OC(=O)C56CCC(C)(C)CC5C5=CCC7C8(C)CCC(OC9OC(CO)C(O)C(O)C9O)C(C)(CO)C8CCC7(C)C5(C)CC6O)OCC(O)C4O)C(O)C3O)C2O)C(O)C(O)C1O (centres undefined)	5.79
C=CC1C(OC2OC(CO)C(O)C(O)C2O)OC=C2C(=O)OCCC21O (centres undefined)	3.2
COc1ccc(-c2cc(=O)c3c(O)cc(OC4OC(CO)C(O)C(O)C4OC4OC(C)C(O)C(O)C4O)cc3o2)cc1O (centres undefined)	4.47
CC1OC(OCC2OC(Oc3c(-c4ccccc4O)oc4cc(O)cc(O)c4c3=O)C(O)C(O)C2O)C(O)C(O)C1O (centres undefined)	4.1
CS(=O)CCCCCCCCN (centres undefined)	2.49
CCCCCC(=O)OC1C(CO)OC(OC2(CO)OC(CO)C(OC(C)=O)C2O)C(OC(=O)CCCCC)C1OC(=O)CCCCC (centres undefined)	9.97
CCC1(O)C(=O)OCc2c1cc1n(c2=O)Cc2cc3ccccc3nc2-1 (centres undefined)	5.4
COc1cc(C=CC(=O)OCC2OC(OC3C(c4c(O)cc5oc(-c6ccc(O)c(O)c6)cc(=O)c5c4O)OC(CO)C(O)C3O)C(O)C(O)C2O)ccc1O (centres undefined)	3.87
CC(=O)OCC1OC(Oc2cc(O)c3c(=O)cc(-c4ccc(O)cc4)oc3c2)C(O)C(O)C1O (centres undefined)	5.14

Structure (SMILES)	LC retention time [min]
CC(CCC1(O)OC2CC3C4CC=C5CC(O)CC(OC6OCC(O)C(OC7OCC(O)C(O)C7O)C6OC6OC(C)C(O)C(O)C6O)C5(C)C4CCC3(C)C2C1C)COC1OC(CO)C(O)C(O)C1O (centres undefined)	4.15
COc1cc(C=Cc2ccc(O)cc2)cc(OC)c1	8.02
O=C(O)C1OC(OC2C(Oc3cc(O)c4c(=O)cc(-c5ccc(O)c(O)c5)oc4c3)OC(C(=O)O)C(O)C2O)C(O)C(O)C1O (centres undefined)	4
O=C(C=Cc1ccc(O)cc1)OC1C(OC2C(Oc3ccc(-c4cc(=O)c5c(O)cc(O)cc5o4)cc3)OC(C(=O)O)C(O)C2O)OC(C(=O)O)C(O)C1O (centres undefined)	4.77
CC1=C2C(=O)C3C(CC=C4CC(OC5OC(CO)C(O)C(O)C5O)CCC43C)C2CCC12OC1CC(C)CNC1C2C (centres undefined)	4.01
CC1OC(OC2CCC3(C)C(CCC4(C)C3CC=C3C5CC(C)(C)CCC5(C(=O)O)CCC34C)C2(C)CO)C(O)C(OC2OC(CO)C(OC3OC(CO)C(O)C(O)C3O)C(O)C2O)C1O (centres undefined)	6.92
O=c1c(OC2OC(CO)C(O)C(O)C2O)c(-c2ccc(OC3OC(CO)C(O)C(O)C3O)c(O)c2)oc2cc(O)cc(O)c12 (centres undefined)	3.54
CC1CCC2(OC1)OC1CC3C4CC=C5CC(O)CC(OC6OCC(O)C(O)C6OC6OC(C)C(O)C(O)C6O)C5(C)C4CCC3(C)C1C2C (centres undefined)	8.57
CC(C)CC(N)C(=O)O (centres undefined)	1.87
COc1ccc(C2OCC3C(c4ccc(OC5OC(CO)C(O)C(O)C5O)c(OC)c4)OCC23)cc1OC (centres undefined)	5.13
CC1OC(Oc2cc(O)c3c(=O)c(OC4OC(CO)C(O)C(O)C4OC4OC(CO)C(O)C(O)C4O)c(-c4ccc(O)c(O)c4)oc3c2)C(O)C(O)C1O (centres undefined)	2.95
CCCCCC(O)CC(=O)CCc1ccc(O)c(OC)c1 (centres undefined)	7.45
COc1cc(-c2oc3cc(OC4OC(CO)C(O)C(O)C4O)cc(O)c3c(=O)c2OC2OC(CO)C(O)C(O)C2O)cc(OC2OC(CO)C(O)C(O)C2O)c1O (centres undefined)	2.8
O=c1cc(-c2ccc(O)cc2)oc2cc(O)cc(O)c12	5.89
O=C(O)CC(=O)NC(Cc1c[nH]c2ccccc12)C(=O)O (centres undefined)	4.35
CC1CCC(C(C)C2CCC3C4CC(=O)C5CC(O)CCC5(C)C4CCC23C)=NC1 (centres undefined)	4.95
CCCCCC=CCC=CCC=CCCCCC(=O)OCC(O)COP(=O)([O-])OCC[N+](C)(C)C (centres undefined)	8.85
Cc1c(N)c(=O)n(-c2ccccc2)n1C	2.76
CC(=O)Oc1ccc(C=Cc2cc(OC(C)=O)cc(OC(C)=O)c2)cc1	8.46
COC(=O)C=Cc1ccccc1	2.87
CC1OC(OC2C(OC3C(OC4CCC5(C)C(CCC6(C)C5CC=C5C7CC(C)(C)CC(O)C7(C)CCC56C)C4(C)CO)OC(C(=O)O)C(O)C3O)OC(C(=O)O)C(O)C2O)C(O)C(O)C1O (centres undefined)	7.06
CC1OC(OC2C(OC3C(OC4CCC5(C)C(CCC6(C)C5CC=C5C7CC(C)(C)CC(OC(=O)CC(=O)O)C7(C)CCC56C)C4(C)CO)OC(C(=O)O)C(O)C3O)OC(CO)C(O)C2O)C(O)C(O)C1O (centres undefined)	6.73
O=C1CC(c2ccc(O)cc2)Oc2cc(OC3OC(CO)C(O)C(O)C3O)cc(O)c21 (centres undefined)	4.52
COc1ccc2c(c1)OC(O)C(=O)N2O (centres undefined)	2.59
CC1CCC2C(C)C3C(CC4C5CC=C6CC(OC7OC(CO)C(O)C(OC8OC(CO)C(O)C(O)C8O)C7OC7OC(C)C(O)C(O)C7O)CCC6(C)C5CCC43C)N2C1 (centres undefined)	4.95

Structure (SMILES)	LC retention time [min]
O=c1oc2cc(OC3OC(CO)C(O)C(O)C3O)ccc2c2oc3cc(O)ccc3c12 (centres undefined)	4.38
C=CC1C(OC2OC(CO)C(O)C(O)C2O)OC=C2C(=O)N3Cc4c([nH]c5ccccc5c4=O)C3CC21 (centres undefined)	4.07
O=c1c(OC2OC(CO)C(O)C(O)C2O)c(-c2cc(O)c(O)c(O)c2)oc2cc(O)cc(O)c12 (centres undefined)	3.64
COc1ccc(-c2cc(=O)c3c(O)cc(OC4OC(C(=O)O)C(O)C(O)C4O)cc3o2)cc1O (centres undefined)	4.6
CC1OC(OC2C(OC3C(OC4CCC5(C)C(CCC6(C)C5C=CC5=C7CC(C)(C)CC(O)C7(C)CCC56C)C4(C)CO)OC(C(=O)O)C(O)C3O)OC(C(=O)O)C(O)C2O)C(O)C(O)C1O (centres undefined)	7.57
O=C(O)CCC(NCC1(O)OCC(O)C(O)C1O)C(=O)NC(Cc1ccccc1)C(=O)O (centres undefined)	3.16
COC(=O)C1C2CC3c4[nH]c5cc(OC)ccc5c4CCN3CC2CC(OC(=O)c2cc(OC)c(OC)c(OC)c2)C1OC (centres undefined)	6.12
COc1cc2ccc(=O)oc2cc1OC	5
CC1(C)CCC2(C(=O)OC3OC(CO)C(O)C(O)C3O)C(O)CC3(C)C(=CCC4C5(C)CCC(OC6OCC(O)C(OC7OC(CO)C(O)C(O)C7O)C6O)C(C)(C)C5CCC43C)C2C1 (centres undefined)	6.06
COc1c2c(cc3c(-c4ccc5c(c4)OCO5)c4c(cc13)C(=O)OC4)OCO2	8.93
CC1OC(OC2CCC3(C)C(CCC4(C)C3C=CC35OCC6(CCC(C)(C)CC63)C(O)CC45C)C2(C)CO)C(O)C(OC2OC(CO)C(O)C(O)C2O)C1O (centres undefined)	8.25
COc1cc(C(C)=O)cc(OC)c1O	4.31
O=C(O)c1cc2c(c3c1c([N+](=O)[O-])cc1ccccc13)OCO2	7.55
CCc1nccc2c1[nH]c1ccccc12	4.01
CC1CNC2C(C)C3C(CC4C5CCC6CC(OC7OC(CO)C(OC8OC(CO)C(O)C(OC9OCC(O)C(O)C9O)C8OC8OC(CO)C(O)C(O)C8O)C(O)C7O)CCC6(C)C5CCC43C)OC2(O)C1 (centres undefined)	4.02
CC(C)=CCc1cc(C2CC(=O)c3c(O)cc(O)cc3O2)cc(O)c1O (centres undefined)	7.75
COC(=O)CC(OC(=O)C=Cc1cc(OC)c(O)c(OC)c1)C(=O)OC (centres undefined)	3.28
O=c1cc(-c2ccc(O)cc2)oc2cc(O)c(C3OC(CO)C(O)C(O)C3O)c(O)c12 (centres undefined)	3.95
O=C(C=Cc1ccc(O)c(O)c1)OC1CC(O)(C(=O)O)CC(O)C1O (centres undefined)	3.13
COCC12CN(C)C3C4C(OC)C1C3(C(OC)CC2O)C1CC2(O)C(OC)C(O)C4(OC(C)=O)C1C2OC(=O)c1ccccc1 (centres undefined)	5.61
CC1OC(OC2C(Oc3cc(O)c4c(c3)OC(c3ccc(O)c(O)c3)CC4=O)OC(CO)C(O)C2O)C(O)C(O)C1O (centres undefined)	4.04
COc1ccc(-c2cc(=O)c3c(O)cc(OC4OC(CO)C(O)C(O)C4OC4OC(C)C(O)C(O)C4O)cc3o2)cc1 (centres undefined)	5.26
COc1cc(-c2oc3cc(O)cc(O)c3c(=O)c2OC2OC(CO)C(O)C(O)C2O)ccc1OC1OC(CO)C(O)C(O)C1O (centres undefined)	3.23
CC1OC(OC2C(OC3CCC4(C)C(=CCC5C4CCC4(C)C5CC5OC6(CCC(COC(=O)CC(C)(O)CC(=O)O)CO6)C(C)C54)C3)OC(CO)C(O)C2O)C(O)C(O)C1O (centres undefined)	7.38
